# Experimental data reported in patent publication US20100041089A1, “IMPROVED METHOD FOR DETECTING CHEMICAL […]” (priority 2006, published 2010).
# Test system: yeast genes (expressed mRNA)
# Assay: DNA chip measurement of expressed mRNA of yeast genes after culture with a toxic chemical substance
# Format: cell-based, Saccharomyces cerevisiae S288C
# Method in brief: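 Fluorescence ratio, treated over untreated, read by chip scanner; ratio of two or more counted significant. Cells: S288C yeast, YPD, 25° C, chemical added at log phase for 2 h at growth-inhibiting, sublethal level. Cy3/Cy5-labeled cDNA from oligo-dT-purified mRNA.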
smiles,measurement,setting,value
"N#Cc1c(Cl)c(Cl)c(Cl)c(C#N)c1Cl [(9), 2,4,5,6-Tetrachloro-1,3-benzenedicarbonitrile]",The level of expressed mRNA in the presence of chemical substance/The level of expressed mRNA in the absence of chemical substance,"yeast gene YFL010C, cultured two hours with substance",3.1
same,The level of expressed mRNA in the presence of chemical substance/The level of expressed mRNA in the absence of chemical substance,"yeast gene YFL014W, DNA repair protein genes, cultured two hours with substance",13.1
same,The level of expressed mRNA in the presence of chemical substance/The level of expressed mRNA in the absence of chemical substance,"yeast gene YFL024C, cultured two hours with substance",0.5
same,The level of expressed mRNA in the presence of chemical substance/The level of expressed mRNA in the absence of chemical substance,"yeast gene YFL030W, metabolism protein genes",24.5
same,The level of expressed mRNA in the presence of chemical substance/The level of expressed mRNA in the absence of chemical substance,"yeast gene YFL032W, cultured two hours with substance",0.5
same,The level of expressed mRNA in the presence of chemical substance/The level of expressed mRNA in the absence of chemical substance,yeast gene YFL056C,162.3
same,The level of expressed mRNA in the presence of chemical substance/The level of expressed mRNA in the absence of chemical substance,"yeast gene YFL056C, cultured for two hours with substance",162.3
same,The level of expressed mRNA in the presence of chemical substance/The level of expressed mRNA in the absence of chemical substance,yeast gene YFL057C,51.8
same,The level of expressed mRNA in the presence of chemical substance/The level of expressed mRNA in the absence of chemical substance,"yeast gene YFL057C, cultured for two hours with substance",51.8
same,The level of expressed mRNA in the presence of chemical substance/The level of expressed mRNA in the absence of chemical substance,"yeast gene YFR020W, cultured two hours with substance",3.7
same,The level of expressed mRNA in the presence of chemical substance/The level of expressed mRNA in the absence of chemical substance,yeast gene YFR030W,24.1
same,The level of expressed mRNA in the presence of chemical substance/The level of expressed mRNA in the absence of chemical substance,"yeast gene YFR042W, cultured two hours with substance",2.8
same,The level of expressed mRNA in the presence of chemical substance/The level of expressed mRNA in the absence of chemical substance,"yeast gene YGL037C, cultured two hours with substance",2.1
same,The level of expressed mRNA in the presence of chemical substance/The level of expressed mRNA in the absence of chemical substance,"yeast gene YGL047W, cultured two hours with substance",4.5
same,The level of expressed mRNA in the presence of chemical substance/The level of expressed mRNA in the absence of chemical substance,"yeast gene YGL053W, cultured two hours with substance",3.3
same,The level of expressed mRNA in the presence of chemical substance/The level of expressed mRNA in the absence of chemical substance,"yeast gene YGL091C, DNA repair protein genes, cultured two hours with substance",10.8
same,The level of expressed mRNA in the presence of chemical substance/The level of expressed mRNA in the absence of chemical substance,"yeast gene YGL098W, cultured two hours with substance",1.2
same,The level of expressed mRNA in the presence of chemical substance/The level of expressed mRNA in the absence of chemical substance,yeast gene YGL104C,4.6
same,The level of expressed mRNA in the presence of chemical substance/The level of expressed mRNA in the absence of chemical substance,"yeast gene YGL121C, cultured two hours with substance",7.0
same,The level of expressed mRNA in the presence of chemical substance/The level of expressed mRNA in the absence of chemical substance,"yeast gene YGL136C, cultured two hours with substance",1.3
same,The level of expressed mRNA in the presence of chemical substance/The level of expressed mRNA in the absence of chemical substance,"yeast gene YGL227W, cultured two hours with substance",2.4
same,The level of expressed mRNA in the presence of chemical substance/The level of expressed mRNA in the absence of chemical substance,"yeast gene YGR010W, cultured two hours with substance",13.6
same,The level of expressed mRNA in the presence of chemical substance/The level of expressed mRNA in the absence of chemical substance,yeast gene YGR043C,10.9
same,The level of expressed mRNA in the presence of chemical substance/The level of expressed mRNA in the absence of chemical substance,"yeast gene YGR043C, cultured for two hours with substance",10.9
same,The level of expressed mRNA in the presence of chemical substance/The level of expressed mRNA in the absence of chemical substance,"yeast gene YGR101W, cultured two hours with substance",4.0
same,The level of expressed mRNA in the presence of chemical substance/The level of expressed mRNA in the absence of chemical substance,"yeast gene YGR110W, cultured two hours with substance",6.4
same,The level of expressed mRNA in the presence of chemical substance/The level of expressed mRNA in the absence of chemical substance,"yeast gene YGR130C, cultured two hours with substance",2.0
same,The level of expressed mRNA in the presence of chemical substance/The level of expressed mRNA in the absence of chemical substance,"yeast gene YGR134W, cultured two hours with substance",2.4
same,The level of expressed mRNA in the presence of chemical substance/The level of expressed mRNA in the absence of chemical substance,"yeast gene YGR142W, cultured two hours with substance",36.8
same,The level of expressed mRNA in the presence of chemical substance/The level of expressed mRNA in the absence of chemical substance,"yeast gene YGR146C, cultured two hours with substance",0.8
same,The level of expressed mRNA in the presence of chemical substance/The level of expressed mRNA in the absence of chemical substance,"yeast gene YGR154C, cultured two hours with substance",25.2
same,The level of expressed mRNA in the presence of chemical substance/The level of expressed mRNA in the absence of chemical substance,yeast gene YGR197C (transport facilitation protein gene),16.7
same,The level of expressed mRNA in the presence of chemical substance/The level of expressed mRNA in the absence of chemical substance,"yeast gene YGR284C, cultured two hours with substance",4.3
same,The level of expressed mRNA in the presence of chemical substance/The level of expressed mRNA in the absence of chemical substance,"yeast gene YHR016C, cultured two hours with substance",2.8
same,The level of expressed mRNA in the presence of chemical substance/The level of expressed mRNA in the absence of chemical substance,"yeast gene YHR029C, cultured two hours with substance",13.6
same,The level of expressed mRNA in the presence of chemical substance/The level of expressed mRNA in the absence of chemical substance,"yeast gene YHR138C, cultured two hours with substance",5.3
same,The level of expressed mRNA in the presence of chemical substance/The level of expressed mRNA in the absence of chemical substance,"yeast gene YHR199C, cultured two hours with substance",8.6
same,The level of expressed mRNA in the presence of chemical substance/The level of expressed mRNA in the absence of chemical substance,"yeast gene YHR209W, cultured two hours with substance",2.9
same,The level of expressed mRNA in the presence of chemical substance/The level of expressed mRNA in the absence of chemical substance,"yeast gene YIL023C, cultured two hours with substance",3.5
same,The level of expressed mRNA in the presence of chemical substance/The level of expressed mRNA in the absence of chemical substance,"yeast gene YIL024C, cultured two hours with substance",2.2
same,The level of expressed mRNA in the presence of chemical substance/The level of expressed mRNA in the absence of chemical substance,"yeast gene YIL041W, cultured two hours with substance",1.8
same,The level of expressed mRNA in the presence of chemical substance/The level of expressed mRNA in the absence of chemical substance,"yeast gene YIL087C, cultured two hours with substance",2.4
same,The level of expressed mRNA in the presence of chemical substance/The level of expressed mRNA in the absence of chemical substance,"yeast gene YIL097W, cultured two hours with substance",4.9
same,The level of expressed mRNA in the presence of chemical substance/The level of expressed mRNA in the absence of chemical substance,"yeast gene YIL117C, cultured two hours with substance",2.3
same,The level of expressed mRNA in the presence of chemical substance/The level of expressed mRNA in the absence of chemical substance,"yeast gene YIL143C, DNA repair protein genes, cultured two hours with substance",7.1
same,The level of expressed mRNA in the presence of chemical substance/The level of expressed mRNA in the absence of chemical substance,"yeast gene YIL153W, DNA repair protein genes, cultured two hours with substance",4.3
same,The level of expressed mRNA in the presence of chemical substance/The level of expressed mRNA in the absence of chemical substance,"yeast gene YJL020C, cultured two hours with substance",1.3
same,The level of expressed mRNA in the presence of chemical substance/The level of expressed mRNA in the absence of chemical substance,"yeast gene YJL057C, cultured two hours with substance",7.3
same,The level of expressed mRNA in the presence of chemical substance/The level of expressed mRNA in the absence of chemical substance,"yeast gene YJL066C, cultured two hours with substance",2.0
same,The level of expressed mRNA in the presence of chemical substance/The level of expressed mRNA in the absence of chemical substance,"yeast gene YJL082W, cultured two hours with substance",1.4
